Row | melting point [°C] | Structure (SMILES)
1 | > 250 | CN1C(=O)C2(COc3cc4c(cc32)OCCO4)c2c(C(=O)Nc3ccc(F)cc3)cccc21 (centres undefined)
2 | 243 to 244 | Nc1c(-c2ccc(Cl)cc2)nc2ccccc2c1C(=O)O
3 | 319 to 320 | O=c1[nH]c(=Cc2ccc3ccccc3n2)c(=O)[nH]c1=Cc1ccc(F)cc1
4 | 137 to 141 | CCOC(=O)c1ccc(-c2ncc(C#Cc3ccccc3)s2)s1
5 | 100 to 122 | CNCC(O)C(Oc1ccc2c(c1)OCO2)c1ccccc1 (centres undefined)
6 | 120 | CC(C)(C)OC(=O)NCCCCC(=O)N[C@@H](CC(=O)OCc1ccccc1)C(=O)N[C@@H](Cc1ccccc1)C(=O)OCc1ccccc1
7 | 164 to 168 | OCc1ccccc1NC1CCN(Cc2ccccc2)CC1
8 | 205 to 207 | COc1ccc(Cn2nc(-n3cnn(Cc4ccc(F)cc4)c3=O)cc2C(=O)O)cc1
9 | 157 to 160 | COc1cc(OC)c(-c2cc3ccccc3n2C)cc1C=CC(=O)c1ccc(C(=O)O)cc1
10 | 113 to 115 | CC1(C)CC(N(CCCCO)S(C)(=O)=O)c2cc(OCc3ccccc3)ccc2O1 (centres undefined)
11 | 229 to 230 | CC(C)(C)c1ccc(/C=C/C(=O)Nc2ccc3nccnc3c2)cc1
12 | 281 to 282 | Cc1noc2nc(-c3ccccc3)cc(O)c12
13 | 62 to 66 | COC(=O)c1cccc(NC(=O)[C@H](Cc2ccccc2)NC(=O)OC(C)(C)C)c1
14 | 180 to 183 | COc1cc(C=CC(=O)C(C)C(=O)C=Cc2ccc(O)c(OC)c2)ccc1O (centres undefined)
15 | 230 to 232 | COC(=O)c1cc(NC(=O)c2ccccc2Cl)c2cc(Cc3ccc(F)cc3)cnc2c1O
16 | 147 to 149 | O=C(O)CCc1cn(-c2cccnc2)c2ccccc12
17 | 134 to 137 | CCc1ccc(Cc2cc(C(=O)OC)ccc2O)cc1
18 | 87 to 88 | CCOC(=O)Cc1ccc(-c2nc(CCl)c(C)o2)cc1
19 | 166 | COc1cc(C(=O)NC=NC(=O)ON(c2ccc(C)c(NC(=O)c3ccc(C=Cc4ccccc4)cc3)c2)C(C)(C)C)cc(OC)c1OC
20 | 68 to 70 | CON(C)C(=O)NC(CSC(C)=O)Cc1ccccc1 (centres undefined)

Row | melting point [°C] | Structure (SMILES)
21 | 160 to 161 | Cn1cc(-c2cccc(Cl)c2)c(=O)c(-c2ccccc2Cl)c1
22 | 156 to 158 | CCCOc1ccccc1-c1nc2cc(SC)ccc2c(=O)[nH]1
23 | 115 to 117 | CC(C)OCCn1c(C2CCN(CCc3ccc(C(C)(C)C)cc3)CC2)nc2ccccc21
24 | 182 to 184 | Cc1c(-c2ccccc2)nc(C(C)C)c(CO)c1-c1ccc(F)cc1
25 | 167 to 170 | CC(C)(C)CN1c2ccccc2C(C)(C)C12C=Nc1c(ccc3ccccc13)O2 (centres undefined)
26 | 145 to 147 | CN(C)CCCC(=O)N1CCC(c2[nH]nc3c2C(=O)c2c(NC(=O)NN4CCOCC4)cccc2-3)CC1
27 | 139 to 140 | CN(c1cccc2cc(C3=NCC(CN4CCOCC4)S3)[nH]c12)S(=O)(=O)c1cccs1 (centres undefined)
28 | 117 to 118 | COc1cc(C(O)c2ccnc3ccccc23)ccc1OCc1ccccc1 (centres undefined)
29 | 140 to 160 | CCC(CNC(=S)Nc1cccc(-c2c[nH]cn2)c1)N(Cc1ccc(Cl)c(Cl)c1)c1ccc(Br)cn1 (centres undefined)
30 | 118 to 120 | CN(CCc1c[nH]c2ccc(CNS(C)(=O)=O)cc12)C(=O)OCc1ccccc1
31 | 56 to 58 | CCOC(=O)CCC(=O)c1ccc(-c2ccccc2F)cc1
32 | 161 to 163 | CC(C)(C)c1ccc(C(O)(c2ccccc2)C2CCN(CCCC(O)c3ccccc3)CC2)cc1 (centres undefined)
33 | 145 to 147 | Cc1ccc(COc2cccnc2NC(=S)Nc2ccc(Cl)cc2)cc1
34 | 159 to 161 | O=C(O)CCc1cc(OCCCc2cn(-c3ccc(C(F)(F)F)cn3)nc2OCc2ccccc2)nn1-c1ccccc1
35 | 238 to 239 | O=C(CCc1ccccc1C(=O)O)Nc1cccc(/C=C/c2nc(C3CCC3)cs2)c1
36 | 86 | Cc1ccc(S(=O)(=O)N2[C@@H](CCC#N)CC[C@H]2c2ccc(F)cc2)cc1 (racemic)
37 | 94 | COC(=O)Cn1c(C(=O)OCc2ccccc2)cc2ccccc21
38 | 117 to 119 | CC(CCC(=O)O)C(=O)N1c2ccccc2CCC1C(=O)O (centres undefined)
39 | 181 to 183 | COC[C@H]1CCCN1NC(=O)Nc1cccc2c1C(=O)c1c-2n[nH]c1-c1ccc(C(=O)N2CCN(C)CC2)s1
40 | 82 to 84 | N=C(N)NC(=O)Cn1c(Cc2ccccc2)ccc1-c1ccccc1

More lines, now with the values behind:

Row | Structure (SMILES) | melting point [°C]
41 | CC(=O)OC1CSC(Oc2cncc(-c3cnccc3C)c2)C(OC(C)=O)C1OC(C)=O (centres undefined) | 165
42 | Cc1nc(N2CCc3ccccc3CC2)c(C#N)c(=O)n1C[C@H]1COC(C)(C)O1 | 166 to 168
43 | COc1ccc(S(=O)(=O)Nc2cc(C)c(S(=O)(=O)C[N+](=O)[O-])c(C)c2)cc1 | 141 to 142
44 | COC(=O)c1n[nH]c(C(C)C)c1[N+](=O)[O-] | 78 to 80
45 | CCOC(=O)C1=C(COC)NC(COC)=C(C(=O)OCC)C1c1ccc(SC)cc1 | 136 to 138
46 | COc1ccc(CS(=O)(=O)c2cc3ccc(O)cc3oc2=O)cc1 | 231 to 232
47 | Cc1ccc(-c2nc(Cl)cc(Cl)n2)cc1 | 84 to 85
48 | CCCCCCCCCCCNC(=O)NCc1ccccc1 | 97
49 | CCCS(=O)(=O)c1c(S(N)(=O)=O)c(C)nn1C | 127 to 129
50 | O=[N+]([O-])c1ccc(OCCCCl)cc1 | 37 to 39
51 | O=C1c2cc3nnn(Cn4cc(Br)cn4)c(=O)c3cc2OC2CCCN12 (centres undefined) | 180 to 181
52 | O=C(O)[C@@H]1C[C@H]2C[C@@H](C=Cc3nsnc3O)CC[C@H]2CN1 (racemic) | 239 to 242
53 | CCc1c(OCc2ccc(Cl)cc2)cnn(C(C)(C)C)c1=O | 86 to 88
54 | N#CC(C#N)=C1C=C(C=Cc2ccc(N)cc2)OC(C=Cc2ccc(N)cc2)=C1 | 249
55 | O=Cc1c2ccc(F)cc2c(C=O)c2ccc(F)cc12 | 240 to 242
56 | CC(O)(Cc1ccc(C#N)cc1)Cc1ccc(C#N)cc1 | 147 to 148
57 | CN(C)CCOc1ccc(CN2C(=O)C3(COc4cc5c(cc43)OCCO5)c3ccccc32)cc1 (centres undefined) | 77 to 79
58 | COc1ccc([N+](=O)[O-])c2c1OCC(C(=O)Nc1ccc(N3CCOCC3)cc1)C2 (centres undefined) | 238 to 240
59 | NC(=O)c1ncn2c1[C@@H]1CCN1C(=O)c1cc(F)ccc1-2 | 223 to 224
60 | NS(=O)(=O)c1cc(C(F)(F)F)cc(C(F)(F)F)c1 | 183 to 185

Row | Structure (SMILES) | melting point [°C]
61 | COc1ccc(C2NC(C(=O)O)C(C)(C)S2)c(C(=O)O)c1OC (centres undefined) | 90 to 91
62 | CC(=NO)C1=CCN(C)CC1 | 166 to 168
63 | COc1cc2c(cc1O)CCC1C2CCC2(C)C(=O)CCC12 (centres undefined) | 167 to 170
64 | CC(=O)C1(Nc2ccc(C)cc2)CCN(CCc2ccccc2)CC1 | 134
65 | CCCCCCCCCCc1nc(N(C)C)nc(OC)c1O | 59 to 60
66 | CCOC(=O)COc1coc(CCl)cc1=O | 98 to 100
67 | CC(C)(c1ccc(OP(=O)(c2ccccc2)c2ccccc2)cc1)c1ccc(OP(=O)(c2ccccc2)c2ccccc2)cc1 | 71 to 72
68 | COC(=O)C1(Cc2c[nH]c3ccccc23)CC(N=[N+]=[N-])C(=O)O1 (centres undefined) | 110 to 112
69 | COc1cccc2c1CCC(C#N)C2O (centres undefined) | 96 to 98
70 | COc1cc2c(cc1OC)Sc1ccc(Cl)cc1C(Cl)C2 (centres undefined) | 139 to 141
71 | CCCN/C(C)=C(/C#N)C(N)=S | 149 to 151
72 | NS(=O)(=O)c1ccc(-n2nc(C(F)(F)F)cc2-c2ccc(-c3ccco3)cc2)cn1 | 140 to 170
73 | COc1ccc2c(c1)C(=O)c1cccc(OC(C)C)c1-2 | 89 to 90
74 | CCc1c(OC)nc2nc(C(=N)NO)cn2c1C | 249 to 250
75 | COc1cc(Nc2c(C#N)cnc3cc(/C=C/CCCN4CCOCC4)c(OC)cc23)c(Cl)cc1Cl | 110 to 112
76 | COC(=O)CCNC1(C)CCN(c2ncc3ncnc(Nc4ccc(F)c(Cl)c4)c3n2)CC1 | 134 to 135
77 | CC(C)OC(=O)c1cc(N)n(C)n1 | 86 to 87
78 | CCN1NC=C2C1=NC=CC2(ON=C(C)C)C(O)c1ccccn1 (centres undefined) | 131 to 133
79 | CCC(=O)NC[C@@H]1C[C@H]1c1cccn2nc(C)cc12 (relative stereo) | 95 to 98
80 | COc1ccc2c(c1)c(C#N)cn2C | 100 to 104

Row | Structure (SMILES) | melting point [°C]
81 | COCCCNCc1ccc(-c2cc3ncnc(Nc4ccc5[nH]ccc5c4)c3s2)cc1 | 160 to 175
82 | Cc1c(C(=O)N[C@H](C)[C@](O)(Cn2cncn2)c2ccc(F)cc2F)cnn1-c1ccc(Cl)cc1 | 154 to 155
83 | CC(C)CON(Cc1ccc(F)cc1)C(=O)C1=C(O)C(=O)N(C)C1 | 96 to 97
84 | CC(C)(C)NS(=O)(=O)c1ccccc1CCO | 43 to 45
85 | CCCN(CCC)C(=O)Cc1c(-c2ccc(C)cc2)nn2cccnc12 | 110 to 111
86 | O=C1N(Cc2ncccc2C(F)(F)F)c2c(F)cccc2C12COc1cc3c(cc12)OCCO3 (centres undefined) | 241 to 243
87 | CN(C)C(=O)NNC(=O)c1ccccc1 | 199 to 201
88 | CCOC(=O)C(C)(C)NC(=O)c1nnc2ccc(Cl)nn12 | 132 to 133
89 | COc1cccc(N(CC(=O)OC(C)(C)C)C(=O)CCl)c1 | 110
90 | CCOC(=O)CNC(=O)CCc1cc(Cl)ccc1C(=O)CCCNC(=O)CCCNC(C)=O | 94 to 96
91 | Cc1nc(NC(=O)c2cnccn2)c(Br)c(C)c1Br | 166
92 | CCCCCCCCOc1ccc(C=[N+]([O-])C(C)(C)C)c(F)c1 | 35.6
93 | CC(C)(C)OC(=O)C(CCCCNC(=O)OCc1ccccc1)NC(=O)C(F)(F)F (centres undefined) | 77 to 79
94 | CC(C)(c1ccc(Oc2ccc([N+](=O)[O-])cc2F)cc1)c1cccc(C(C)(C)c2ccc(Oc3ccc([N+](=O)[O-])cc3F)cc2)c1 | 151 to 152
95 | COc1ccc(SCc2ccc(F)cc2F)c(Cl)c1Cl | 86 to 88
96 | COc1cc2nc(N)nc(-c3ccc(Br)cc3)c2cc1OC | 270 to 272
97 | CN1CCN(c2cccc3c2C[C@H](NC(=O)c2ccc(N4CCOCC4)cc2)CO3)CC1 | 210 to 212
98 | CN(C)C1(c2ccc(F)cc2)CCC(=O)CC1 | 128 to 133
99 | Cc1c(N2CCC(O)CC2)c(F)cc2c(=O)c(C(=O)O)cn(C3CC3)c12 | 234 to 236

From a melting point compilation (Tetko et al.; mined from patent text by program, amines drawn as free bases though some values may be those of a salt)
